This is an account of results in PubChem BioAssay (NCI).

SMILES strings stand for the structures. “And” between values parts separate entries of the source, which are not always exact repeats. Equal entries are not always repeated.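 96-well plates; 48 h exposure; 5 concentrations. Endpoints by linear interpolation between flanking doses. Not reached: highest tested concentration assigned. Abbreviation: GI50, concentration required for 50% inhibition of growth. TGI: total growth inhibition.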

In the assay the test system is MDA-MB-468 breast. Kind of assay: DTP human tumour cell line panel, 48 h.
As for `O=C(C1CC1)N1CC[C@@H](Cc2n[nH]c(=O)n2-c2ccc(-c3ccc4occc4c3)cc2)C1`, the GI50 (commonly the concentration that inhibits growth by half) was 20300 nM and the TGI (in general, the concentration at which net growth stops) came to 98100 nM.

For `C=C(C)[C@@H]1CC[C@]2(C)[C@H](CC[C@@H]3[C@@H]([C@@](C)(O)CCC=C(C)C)CC[C@]32C)[C@@]1(C)CCC(=O)N1CCN(C)CC1`, the GI50 was 5490 nM and the concentration for total growth inhibition (TGI) was found to be 18500 nM.

As for `CCN1CCN(Cc2ccc(NC(=O)c3nc4ccc5[nH]ncc5c4c4c3CCCC4)cc2C(F)(F)F)CC1`, the GI50 is 893 nM and the TGI was determined as 1790 nM.

For `C1CCC(C(CC2CCCCN2)C2CCCCC2)CC1` (stereo not drawn), the GI50 is 1370 nM and the total growth inhibition concentration (TGI) came out at 2850 nM.

As to `C/C(=N\NC(=O)c1ccccc1N)c1ccccc1O`, the GI50 is 1710 nM and the TGI worked out at 13800 nM.

For `CN(C)c1ccc(N=Nc2ccc(Br)cn2)c(O)c1`, the GI50 was 469 nM and the TGI worked out at 3980 nM.

Take `COc1cccc(-n2ncc3c(N/N=C/c4cccc(F)c4)ncnc32)c1`: the GI50 was 5440 nM and the TGI stood at 13600 nM.

For the molecule `C=C1C(=O)O[C@H]2[C@H]1CC/C(COC(=O)NCc1c[nH]c3ccc(Br)cc13)=C\CC[C@@]1(C)O[C@@H]21`, the GI50 is 451 nM and the TGI worked out at 1930 nM.

With `CCOC(=O)C#Cc1c(C(=O)OCC)nnn1Cc1ccc(C(F)(F)F)cc1`, the GI50 was 1880 nM and the TGI stood at 4050 nM.

On to `CCCCCCCCCOc1c(OC)cc(C2CC(=O)Nc3c2c(C)nn3-c2nc3ccccc3[nH]2)cc1OC` (stereo not drawn), for which the GI50 was 891 nM and the TGI is 2090 nM.

In the case of `CN1CCN(Cc2ccc(NC(=O)c3cncc(C#Cc4cnc5ccc(Cl)nn45)c3)cc2C(F)(F)F)CC1`, the GI50 was 1110 nM and the TGI worked out at 2580 nM.

Take `COc1ccc2c(c1)C(=O)c1c-2c(=O)n(CCCCCCC(=O)NO)c2ccccc12`: the concentration for 50% growth inhibition (GI50) is 46.3 nM and the TGI was found to be 449 nM.

Take `COc1ccc2[nH]c(=O)c(/C=C/C(=O)c3ccccc3OC)cc2c1`: the concentration for 50% growth inhibition (GI50) was 336 nM and the TGI came out at 1650 nM.

`O=c1[nH]c2c3ccncc3cc(-c3cccc(Cl)c3)c2c2cnccc12`: the GI50 was above 100000 nM and the total growth inhibition concentration (TGI) was above 100000 nM.

`Cc1cnc(NC2CCOCC2)nc1-n1cnc(C(=O)N[C@H](CN)c2cc(F)cc(Cl)c2)c1`: the GI50 is 2670 nM and the concentration for total growth inhibition (TGI) was 11800 nM.

For `Oc1ccc(Cl)cc1-c1cc(-c2ccc(Cl)cc2)n[nH]1`, the GI50 is 1400 nM and the concentration for total growth inhibition (TGI) was found to be 6440 nM.

`Nc1cc2ccccc2c(O)c1O`: the GI50 was 2190 nM and the TGI came to 4750 nM.

As to `Nc1c(C(=O)c2cccc(-c3ccncc3)c2)cnn1-c1ccc(F)cc1`, the GI50 is 4420 nM and the TGI is above 25000 nM.

As for `C#CCN(C)CCCOc1ccc(NCc2ccc(/C=C/C(=O)NO)cc2)cc1Cl`, the GI50 was 411 nM and the TGI amounted to 3550 nM.

As to `O=C1C=C2C(=CCOC2O)O1` (stereo not drawn), the concentration for 50% growth inhibition (GI50) was 425 nM and the total growth inhibition concentration (TGI) was found to be 2760 nM.

Turning to `Cc1cc(-c2ccc(C3C(C#N)=C(N)Oc4c3c(=O)oc3ccccc43)cc2)cnc1F` (stereo not drawn), the GI50 is 17500 nM and the concentration for total growth inhibition (TGI) turned out to be 82500 nM.

On to `CCN1C2=C(SC(=S)C1=C1SC(C(=O)OC)=C(C(=O)OC)S1)SC(=Nc1ccc(OC)cc1)C2=O`, for which the GI50 was 1730 nM and the total growth inhibition concentration (TGI) worked out at 3460 nM.

Turning to `NC(=O)c1cc(Cl)ccc1NC(=O)COc1ccccc1`, the GI50 is 1740 nM and the TGI is above 100000 nM.

On to `COC(=O)[C@@H](C)C[C@H](Cc1ccccc1)NC(=O)c1nc([C@@H](C[C@H](C(C)C)N(C)C(=O)[C@@H](NC(=O)[C@H]2CCCCN2C)C(C)C)OC(C)=O)sc1C(C)C`, for which the GI50 was below 3.33 nM and the TGI came out at 137 nM.

Regarding `CNC[C@@H](NC(=O)c1ccc(-c2nc([C@H]3CC[C@H](O)[C@@H](F)C3)cnc2N)cc1F)c1cc(F)cc(Br)c1`, the GI50 was 13200 nM and the TGI was determined as 28400 nM.

Consider `COc1ccc(-c2cn(-c3cccc(C(=O)/C=C/c4cc(OC)c(OC)c(OC)c4)c3)c(=O)[nH]2)cc1`, for which the GI50 was 3070 nM and the TGI stood at 10800 nM.

As to `N=C(N)c1ccc(-c2ccc(-c3cccs3)o2)cc1`, the GI50 is 1720 nM and the TGI amounted to 3400 nM.

For the molecule `O=C(Nc1ccc(-n2ccc3c(NC(=O)c4ccccc4)ncnc32)cc1)c1ccc(Cl)c(C(F)(F)F)c1`, the GI50 was 2860 nM and the total growth inhibition concentration (TGI) was found to be 9230 nM.

For the molecule `C/C(=C\C(=N\N=C(N)N)c1ccc(Cl)cc1)c1ccc(Cl)cc1`, the GI50 was 125 nM and the concentration for total growth inhibition (TGI) was found to be 1460 nM.

With `CC(C)CNC(=O)c1ccc(NC(=O)N(CC(C)C)C(=O)c2ccc(N)c(OCCCN)c2)c(OCCCN=C(N)N)c1`, the GI50 is above 62500 nM and the TGI was above 62500 nM.

As for `NC1(c2ccc(-c3nc4ccn5c(=O)[nH]nc5c4cc3-c3ccccc3)cc2)CCC1`, the concentration for 50% growth inhibition (GI50) is 16.9 nM and 94.3 nM and 62.6 nM.

Turning to `O=C(Cc1ccc(OCc2ccccc2)cc1)NCc1ccc2c(c1)OCO2`, the GI50 is 5900 nM and the total growth inhibition concentration (TGI) was above 100000 nM.

In the case of `COC(=O)CCC1=C(C)C(C)=N/C1=C\c1[nH]c(-c2ccc[nH]2)cc1OC`, the GI50 is 647 nM and the TGI was determined as 2700 nM.

For the molecule `CO[C@H]1C[C@@H]2CC[C@@H](C)[C@@](O)(O2)C(=O)C(=O)N2CCCC[C@H]2C(=O)O[C@H]([C@H](C)C[C@@H]2CC[C@@H](O)[C@H](OC)C2)CC(=O)[C@H](C)C=C(C)[C@@H](O)[C@@H](OC)C(=O)[C@H](C)C[C@H](C)/C=C/C=C/C=C1C`, the concentration for 50% growth inhibition (GI50) is 0.0364 nM and 0.315 nM; the total growth inhibition concentration (TGI) came out at 13400 nM.

Consider `COC(=O)[C@]12CC[C@@H](C(=O)/C=C/c3cccnc3)[C@@H]1[C@H]1CC[C@@H]3[C@@]4(C)C/C(=C/c5cccnc5)C(=O)C(C)(C)[C@@H]4CC[C@@]3(C)[C@]1(C)CC2`, for which the concentration for 50% growth inhibition (GI50) was 272 nM and the total growth inhibition concentration (TGI) worked out at 712 nM.

Regarding `O=C1C=C(Nc2cccnc2)c2ccccc2C1=O`, the GI50 is 3200 nM and the concentration for total growth inhibition (TGI) is 11100 nM.

For the molecule `c1ccc(-c2cccc(-c3ccccn3)n2)nc1`, the 50% growth inhibitory concentration (GI50) is 284 nM and the TGI amounted to 1730 nM.

In the case of `COc1cc(/C=C\c2cc(/C=C\c3ccc(O)c(OC)c3)n(C(=O)COc3ccccc3)n2)ccc1O`, the GI50 was 1710 nM and the TGI came out at 7390 nM.

As for `N=C(N)c1ccc(-c2ccc(-c3ccc(F)cc3)s2)nc1`, the GI50 is 1630 nM and the concentration for total growth inhibition (TGI) was 3380 nM.

Take `c1ccc(-c2nc([P+](c3ccccc3)(c3ccccc3)c3ccccc3)c(N3CCOCC3)o2)cc1`: the GI50 was 278 nM and the total growth inhibition concentration (TGI) was 1060 nM.

`CC1CN=C(c2cccc(-c3ccc(-c4ccccc4)o3)c2)N1` (stereo not drawn): the GI50 is 1690 nM and the total growth inhibition concentration (TGI) was 3920 nM.

For the molecule `CN1C(=O)C23CC4(C56CC78SSC(CO)(C(=O)N7C5Nc5ccccc56)N(C)C8=O)c5ccccc5NC4N2C(=O)C1(CO)SS3` (stereo not drawn), the GI50 was below 24.1 nM and the concentration for total growth inhibition (TGI) was determined as 60.6 nM.
